This note sets out measurements from patent US20250275976A1, “Methods of Treating Neuroinflammatory Conditions” (Athira Pharma, Inc., priority 2022, published 2025).

Experiment [1] deals with Rat primary cortical neuron cultures. The following applies: LPS 24 h.
Experiment [2] shares this test system. Kind of experiment: Neuroprotection of rat cortical neurons against LPS challenge (Cell Titer-Glo). The following applies: at at least one dose tested. For orientation: Cellular ATP, detected with luciferase, serves as a proxy for viable cell number.
The next experiment concerns male CD-1 mice. Kind of experiment: T-maze spontaneous alternation, LPS-induced cognitive deficit. The experiment is classed as in vivo, mouse. Conditions: for Spontaneous alternation (%) Mean: LPS 250 μg/kg i.p.; for Recovery (%): saline/vehicle = 100%, LPS/vehicle = 0%; for Reversal of LPS-induced cognitive deficit in T-maze (result in words): ANOVA, Fisher's PLSD, p<0.05, doses as in the value. An excerpt: Encephalitis refers to inflammation of the brain that may result in brain swelling fever, headache, confusion, and seizures. The source of neuroinflammation can vary widely, including due to viral, bacterial, parasitic, or fungal infection or due to autoimmune diseases. Lipopolysaccharide (LPS) is a bacterial endotoxin that induces an intense neuroinflammatory reaction and has been associated with cognitive decline. The ability of Compound A19 to reverse cognitive decline induced by LPS in a mouse model of encephalitis was studied using a T-maze assay. In a separate substantially similar assay, Compounds 1a and 5a were also assessed.
Spontaneous and continuous alternation is the innate tendency of rodents to alternate free choices in a T-maze (T-CAT) over a series of successive runs. This sequential procedure relies on working memory and is sensitive to various pharmacological manipulations affecting memory processes. The present studies were conducted to evaluate the abilities of Compound A19, Compound 1a and Compound 5a to reverse LPS-induced cognitive deficit in the T-maze assay.
Compound A19 was dissolved in 0.9% NaCl (saline) and vortexed periodically until complete dissolution and with the pH adjusted between 7.4 and 7.8. Compound A19 was used in concentrations of 0.125, 0.1, 0.05, 0.025 and 0.0125 mg/ml which when given in a volume of 10 ml/kg result in doses of 1.25, 1, 0.5, 0.25 and 0.125 mg/kg, respectively. Compound 1a was dissolved at 160 mg/ml in 100% DMSO and vortexed until complete dissolution. Then the above stock solution was diluted in 20% PEG-400 and 78% 0.9% NaCl, whereby the stock solution comprised 2% of the final solution. Compound 1a was used in concentrations of 0.05, 0.2, 0.8, 1.6 and 3.2 mg/ml which when given in a volume of 10 ml/kg result in doses of 0.5, 2, 8, 16 and 32 mg/kg, respectively. Compound 5a was dissolved at 100 mg/ml in 100% DMSO and vortexed until complete dissolution. Then the above stock solution was diluted in 20% PEG-400 and 78% 0.9% NaCl, whereby the stock solution comprised 2% of the final solution. Compound 5a was used in concentrations of 0.125, 0.25, 0.5, 1 and 2 mg/ml which when given in a volume of 10 ml/kg result in doses of 1.25, 2.5, 5, 10 and 20 mg/kg, respectively.
Memantine was dissolved in saline. Memantine was used in concentration of 0.1 and 0.01 mg/ml, which when given in a volume of 10 ml/kg result in a dose of 1 and 0.1 mg/kg, respectively. Memantine is approved for symptomatic treatment of Alzheimer's disease was used as a reference compound.
LPS was dissolved in saline and prepared at a concentration of 0.0125 mg/ml and given intraperitoneally (i.p.) at a dosage volume of 20 ml/kg to yield a dose of 0.25 mg/kg ([…]).
Four to five weeks old male CD-1 mice (Janvier; Le Genest St Isle - France) were used for the study.
LPS was injected i.p. 2 weeks prior the T-maze trial. Compound 1a was tested at doses of 0.5, 2, 8, 16, and 32 mg/kg administered orally (p.o.) for 14 days with last treatment given 60 min before the T-maze trial. Compound 5a was tested at the doses of 1.25, 2.5, 5, 10, and 20 mg/kg administered orally (p.o.) for 14 days with last treatment given 60 min before the T-maze trial. LPS was injected i.p. 2 weeks prior the T-maze trial.
The T-maze apparatus was made of gray Plexiglas with a main stem (55 cm long×10 cm wide×20 cm high) and two arms (30 cm long×10 cm wide×20 cm high) positioned at a 90-degree angle relative to the main stem. A start box (15 cm long×10 cm wide) was separated from the main stem by a guillotine door. Horizontal doors were also provided to close specific arms during the force choice alternation task.
The experimental protocol consisted of a single session, which started with one “forced-choice” trial, followed by 14 “free-choice” trials. In the “forced-choice” trial, the animal was confined 5 seconds in the start arm and was then released while either the left or right goal arm was blocked by a horizontal door. […]

The subject of the next experiment is Prp-TDP43^A315T mice. The experiment is classed as in vivo. As to the method: Extranuclear accumulation of TDP-43 protein is a pathological hallmark of a number of neurological diseases. […] Male Prp-TDP43^A315T mice (N=10 mice per group) at 3 weeks of age were administered daily treatments of test compounds. Compound A19 was administered via subcutaneous injection, and Compound 5a and Compound 6a were administered via oral gavage. After 2 months of treatment, plasma samples were collected for cytokine quantification. […] Plasma IL-6 and TNF-α cytokine expression levels were determined using the ELISA method. The submandibular vein was punctured with a lancet and a blood drop was collected directly on a microtube containing EDTA as anticoagulant. Samples were centrifuged for 15 minutes at 1000×g at 4° C. within 20 minutes of collection. 20 μl of plasma supernatant was stored at −20° C. before ELISA analysis.
Plasma was diluted at 1:10 in sterile PBS, and IL-6 and TNF-α quantification was performed in duplicate for each animal using 10 μl of sample per well in 96-well plates using the ELISA method (IL-6: Signa-Aldrich Cat #RAB0308, TNF-α: Sigma-Aldrich Cat #RAB0477). Statistical analysis was carried out by 2-way ANOVA with Dunnett's multiple comparisons post-test with compound-treated samples compared to vehicle-treated samples.

Experiment [3] relates to Rat primary cortical neuron cultures. As to the kind of experiment: Neuroprotection of rat primary cortical neurons against neurotoxic insults (Cell Titer-Glo viability). It is filed as cell-based. Conditions: for Statistical significance vs. insult control (cell viability): Positive Control MK-801 (1 uM). The text has this:
HGF/MET signaling activation is expected to protect cells, including neurons, from cell death. […] Hydrogen peroxide (H2O2) treatment produces toxic oxidative stress. Bacteria-derived lipopolysaccharide (LPS) treatment induces inflammatory cell death. Treatment with excess glutamate (Glut) produces excitotoxicity in neuron cultures. Treatment with 1-methyl-4-phenylpyridinium (MPP^+) causes cell death by inhibition of mitochondrial function.
Cells were then subjected to individual conditional insults for 24 hours at the following concentrations: H2O2 at 1 uM, LPS at 1 uM, glutamate at 25 uM, or MPP+ at 500 uM. All treatments contained recombinant human HGF (R&D Systems) at a concentration of 5 ng/ml. MK-801 (Dizocilpine) is a pore blocker of the N-Methyl-D-aspartate (NMDA) receptor, a glutamate receptor, and was used as a positive control.
Data was normalized to DMSO+HGF control set at 100% cell viability.
Data are reported as statistical significance vs. insult control, with NS=not significant, +=p<0.05, ++=p<0.01, and +++=p<0.001.

Setting [4] is: 2 months of treatment, doses as in the value.
Where [5] appears, read: insult alone 24 h (H2O2 1 uM, Glutamate 25 uM, LPS 1 uM, MPP+ 500 uM), Compound 1a study, Table 2.
Setting [6] is: insult alone (H2O2 1 uM, Glutamate 25 uM, LPS 1 uM, MPP+ 500 uM), A19 active metabolite study, Table 3.

Several values for one entry are separate records, joined by “and”; a condition that tells them apart may be missing. Identical values can stand only once. Entries after “also recorded” stand apart in the source; their conditions may differ. Like-named read-outs stand apart in the source and are kept apart here. Square brackets hold non-standard residues; d marks the D form. Peptide text beside a SMILES is read from it. * marks the point of attachment. pY = N[CH](Cc1ccc(OP(=O)(O)O)cc1)C(=O)O; Hexanoyl = CCCCCC(=O)*; Ahx = NCCCCCC(=O)O

With `CCC(C)CN1CC2N(C(=O)c3ccc(OC(F)F)cc3)CCC(=O)N2[C@@H](C)C1=O` (some centres unmarked) [Compound 2a], the “Significance of neuroprotection vs 1 uM LPS” value in experiment [1] (dose 0.1 nM), in experiment [1] (dose 1 nM), in experiment [1] (dose 10 nM), in experiment [1] (dose 100 nM) and in experiment [1] (dose 1 μM) was “+++ (+++ indicates p<0.001)” in each case. Moreover, in experiment [2], the “Protection of primary neurons from LPS-stimulated inflammatory toxicity (in words)” value is recorded as “protected primary neurons from LPS-stimulated inflammatory toxicity”.
`CCCCCC(=O)NC(Cc1ccc(OP(=O)(O)O)cc1)C(=O)NC(C(=O)NCCCCCC(N)=O)C(C)CC` (centres unmarked) [Compound A19] (Hexanoyl-[pY]-Ile-[Ahx]-NH2; configuration not given here): the “Spontaneous alternation (%) Mean” value in the experiment with male CD-1 mice (A19 0.125 mg/kg s.c. daily 14 days, 0.125 mg/kg) is 42% and 42.1%; in the experiment with male CD-1 mice (A19 0.25 mg/kg s.c. daily 14 days, 0.25 mg/kg) it was 60%; with male CD-1 mice (A19 0.5 mg/kg s.c. daily 14 days, 0.5 mg/kg), 64% and 64.3%; with male CD-1 mice (A19 1 mg/kg s.c. daily 14 days, 1 mg/kg), 61% and 60.7%; in the experiment with male CD-1 mice (A19 1.25 mg/kg s.c. daily 14 days, 1.25 mg/kg) it was 61% and 60.7%. The “Recovery (%)” value was -12% in the experiment with male CD-1 mice (A19 0.125 mg/kg s.c., 0.125 mg/kg); 62% in the experiment on male CD-1 mice (A19 0.25 mg/kg s.c.); 79% in the experiment on male CD-1 mice (A19 0.5 mg/kg s.c.); 65% in the experiment with male CD-1 mice (A19 1 mg/kg s.c.); 58% in the experiment on male CD-1 mice (A19 1.25 mg/kg s.c., 1.25 mg/kg). Further, the “Reversal of LPS-induced cognitive deficit in T-maze (result in words)” value in the experiment with male CD-1 mice is recorded as “significant at all doses except at 0.125 mg/kg; also recorded: reversed the LPS-induced cognitive disruption”. Also, the “Significant decrease in plasma cytokine expression after 2 months of treatment: IL-6” value is “++++ (++++ = p < 0.0001)” in the experiment on Prp-TDP43^A315T mice (0.005 mg/kg SC daily) and “+ (+ = p < 0.05)” with Prp-TDP43^A315T mice (0.03 mg/kg SC daily). For the same compound, the “Significant decrease in plasma cytokine expression after 2 months of treatment: TNF-α” value was “++++ (++++ = p < 0.0001)” in the experiment with Prp-TDP43^A315T mice (0.005 mg/kg SC daily) and “+ (+ = p < 0.05)” with Prp-TDP43^A315T mice (0.01 mg/kg SC daily). Also, in the experiment with Prp-TDP43^A315T mice (setting [4]), the “Plasma IL-6 expression (result in words)” value is “significantly reduced TL-6 expression at doses of 0.005, 0.01, and 0.03 mg/kg”. Besides, in the experiment with Prp-TDP43^A315T mice (setting [4]), the “Plasma TNF-α expression (result in words)” value is “significantly reduced TNF-α expression at 0.005 and 0.01 mg/kg”.
As to `OO` [Compound H2O2, Hydrogen peroxide, reference compound], the entries for the “Insult effect (% viability vs vehicle)” value in experiment [3] (setting [5]) and in experiment [3] (setting [6]) were 64.23% and 59.35%, respectively.
The corresponding values for `N[C@@H](CCC(=O)O)C(=O)O` [Glutamate, glutamate, reference compound] are 49.55% and 54.4%.
For the compound `C[C@]12N[C@H](Cc3ccccc31)c1ccccc12` [MK-801, Dizocilpine, reference compound], the “Statistical significance vs. insult control (cell viability)” value in experiment [3] (Glutamate (25 uM) insult), in experiment [3] (H2O2 (1 uM) insult), in experiment [3] (LPS (1 uM) insult) and in experiment [3] (MPP+ (500 uM) insult) was “+++ (+++=p<0.001)” each time.
As to `C[n+]1ccc(-c2ccccc2)cc1` [MPP+, 1-methyl-4-phenylpyridinium, reference compound], the “Insult effect (% viability vs vehicle)” value in experiment [3] (setting [5]) came out at 49.85%; in experiment [3] (setting [6]) it was 54.3%.
`CC12CC3CC(C)(C1)CC(N)(C3)C2` [Memantine, reference compound]: in the experiment with male CD-1 mice, the “Reversal of LPS-induced cognitive deficit in T-maze (result in words)” value is “significant at both doses”. In addition, the “Spontaneous alternation (%) Mean” value was 64% and 63.6% in the experiment on male CD-1 mice (Memantine 0.1 mg/kg i.p. daily 14 days); 54% and 54.3% in the experiment with male CD-1 mice (Memantine 1 mg/kg i.p. daily 14 days). The “Recovery (%)” value in the experiment with male CD-1 mice (Memantine 0.1 mg/kg i.p.) came out at 76%; with male CD-1 mice (Memantine 1 mg/kg i.p.) it was 38%.
